Measured values taken from publication PMC11944884, “Bioactive Secondary Metabolites of Two Chinese Edible Boletes, Phlebopus portentosus and Butyriboletus roseoflavus” (Molecules, 2025).
Like-named read-outs stand apart in the source and are kept apart here.

How the values were obtained:
coxsackievirus B3 = assay: Anti-coxsackievirus assay (CPE / MTT) in Vero cells; type: cell-based
BEL7402 = assay: Cytotoxicity CCK-8 assay, BEL7402; type: cell-based; conditions: Homo sapiens, Bel-7402; for IC50: BEL7402
[1] = test system: Hela229, SGC7901, PC-3, BEL7402, and MCF-7/ADR; assay: Cytotoxicity CCK-8 assay, small panel of human cancer cell lines (summary statements); type: cell-based
PC-3 = assay: Cytotoxicity CCK-8 assay, PC-3; type: cell-based; conditions: Homo sapiens; for IC50: PC-3
SGC7901 = assay: Cytotoxicity CCK-8 assay, SGC7901; type: cell-based; conditions: Homo sapiens, SGC-7901; for IC50: SGC7901
MCF-7/ADR = assay: Cytotoxicity CCK-8 assay, MCF-7/ADR; type: cell-based; conditions: Homo sapiens, NCI/ADR-RES
Hela229 = assay: Cytotoxicity CCK-8 assay, Hela229; type: cell-based; conditions: Homo sapiens, HeLa 229; for IC50: Hela229
SH-SY5Y cells [2] = assay: Neuroprotection against H2O2-induced neurotoxicity (MTT); type: cell-based; conditions: 500 μM compound, 80 μM H2O2, mean ± SEM
influenza virus A/H3N2 = assay: microbe, parasite or virus in culture; type: cell-based, influenza virus A (H3N2 strain); conditions: MDCK cells
[3] = test system: influenza virus B/Victoria strain; assay: microbe, parasite or virus in culture; type: cell-based; conditions: MDCK cells
SH-SY5Y cells [4] = assay: Neuroprotection against Aβ25−35-induced neurotoxicity (MTT); conditions: 10 μM compound, 10 μM Aβ25-35, mean ± SEM
Description: The cells, obtained from the American Type Culture Collection (ATCC, Manassas, VA, USA) at high passages, maintained at 37 °C in a humidified atmosphere containing 5% CO2. Cells were seeded into 96-well plates at a density of 2 × 10^5 cells/mL in MEM/F12 medium supplemented with 10% (v/v) fetal bovine serum. Experiments were carried out after 24 h of seeding. Test compounds and positive control (epigallocatechin-3-gallate, EGCG; NAC) were made to 10^−2 M stock solutions with DMSO and then diluted to corresponding concentrations with cell culture medium. Cells were incubated with test compounds or EGCG (10 μM, Sigma, St. Louis, MO, USA, purity > 98%)/NAC for 2 h, followed by exposure to 80 μM H2O2 or 10 μM Aβ25−35 for another 24 h without medium replacement. After treatment, 10 μL of MTT (5 mg/mL) was added to each well and incubated at 37 °C for 3 h. The cells were finally lysed with 100% DMSO, and the absorbance of MTT formazan was measured at 490 nm using a microplate reader.

[5] = 48 h, read-out: Cell proliferation inhibition (%)

CC(C)[C@@H](C)/C=C/[C@@H](C)[C@H]1CC[C@H]2C3=C(CC[C@]12C)[C@@]1(C)CC[C@H](O)C[C@@]12O[C@H]2C3=O [Compound 29, (22E,24R)-5α,6α-epoxy-3β-hydroxy-ergosta-8,22-dien-7-one]
antiviral effect against coxsackievirus B3 (coxsackievirus B3): moderate antiviral effect | increased cell survival (coxsackievirus B3; 100 μg/mL, CVB-infected Vero cells): 35.4% | cytopathic morphology of Vero cells infected with coxsackievirus B3 (coxsackievirus B3; 100 μg/mL, microscope): reversed the cytopathic morphology

CC(C)[C@@H](C)/C=C/[C@@H](C)[C@H]1CC[C@H]2C3=CC(=O)O[C@@]3(O)CC[C@]12C [Compound 33, demethylincisterol A3]
IC50 (BEL7402): 27.7 µM | inhibition at 6.25 µM (BEL7402; BEL7402, 6.25 μM, 48 h, read-out: Cell proliferation inhibition (%)): 10% | inhibition at 12.5 µM (BEL7402; BEL7402, 12.5 μM, 48 h, read-out: Cell proliferation inhibition (%)): 15.3% | inhibition at 25 µM (BEL7402; BEL7402, 25 μM, 48 h, read-out: Cell proliferation inhibition (%)): 49.4% | inhibition at 50 µM (BEL7402; BEL7402, 50 μM, 48 h, read-out: Cell proliferation inhibition (%)): 75.3% | inhibition at 100 µM (BEL7402; BEL7402, 100 μM, 48 h, read-out: Cell proliferation inhibition (%)): 82.8% | IC50 ([1]; Hela229, SGC7901, PC-3, and BEL7402 cells, read-out: IC50s): 20 to 30 µM | IC50 (PC-3): 28.4 µM | inhibition at 6.25 µM (PC-3; PC-3, 6.25 μM, 48 h, read-out: Cell proliferation inhibition (%)): 12.4% | inhibition at 12.5 µM (PC-3; PC-3, 12.5 μM, 48 h, read-out: Cell proliferation inhibition (%)): 21.6% | inhibition at 25 µM (PC-3; PC-3, 25 μM, 48 h, read-out: Cell proliferation inhibition (%)): 47.3% | inhibition at 50 µM (PC-3; PC-3, 50 μM, 48 h, read-out: Cell proliferation inhibition (%)): 67.7% | inhibition at 100 µM (PC-3; PC-3, 100 μM, 48 h, read-out: Cell proliferation inhibition (%)): 85.9% | IC50 (SGC7901): 26.7 µM | inhibition at 6.25 µM (SGC7901; SGC7901, 6.25 μM, 48 h, read-out: Cell proliferation inhibition (%)): 8.3% | inhibition at 12.5 µM (SGC7901; SGC7901, 12.5 μM, 48 h, read-out: Cell proliferation inhibition (%)): 16.7% | inhibition at 25 µM (SGC7901; SGC7901, 25 μM, 48 h, read-out: Cell proliferation inhibition (%)): 39.1% | inhibition at 50 µM (SGC7901; SGC7901, 50 μM, 48 h, read-out: Cell proliferation inhibition (%)): 93.5% | inhibition at 100 µM (SGC7901; SGC7901, 100 μM, 48 h, read-out: Cell proliferation inhibition (%)): 94.7% | IC50 (MCF-7/ADR): > 50 µM | inhibition at 6.25 µM (MCF-7/ADR; [5]): 5.5% | inhibition at 12.5 µM (MCF-7/ADR; [5]): 5.1% | inhibition at 25 µM (MCF-7/ADR; 25 μM, 48 h, read-out: Cell proliferation inhibition (%)): 27.1% | inhibition at 50 µM (MCF-7/ADR; [5]): 42.6% | inhibition at 100 µM (MCF-7/ADR; [5]): 81.6% | IC50 (Hela229): 24.4 µM | inhibition at 6.25 µM (Hela229; Hela229, 6.25 μM, 48 h, read-out: Cell proliferation inhibition (%)): -4.8% | inhibition at 12.5 µM (Hela229; Hela229, 12.5 μM, 48 h, read-out: Cell proliferation inhibition (%)): 5.8% | inhibition at 25 µM (Hela229; Hela229, 25 μM, 48 h, read-out: Cell proliferation inhibition (%)): 52.3% | inhibition at 50 µM (Hela229; Hela229, 50 μM, 48 h, read-out: Cell proliferation inhibition (%)): 96.2% | inhibition at 100 µM (Hela229; Hela229, 100 μM, 48 h, read-out: Cell proliferation inhibition (%)): 96.7%

COc1cccc2c1C(=O)c1c(O)c3c(c(O)c1C2=O)C[C@@](O)(C(=O)CO)C[C@@H]3O[C@H]1C[C@H](N)[C@H](O)[C@H](C)O1 [Doxorubicin, reference compound]
IC50 (BEL7402): 1.59 µM | IC50 ([1]; over the panel Hela229, SGC7901, PC-3, BEL7402, MCF-7/ADR, read-out: IC50): 0.75 to 35.2 µM | IC50 (PC-3): 1.78 µM | IC50 (SGC7901): 0.8 µM | IC50 (MCF-7/ADR): 35.2 µM | inhibition at 6.25 µM (MCF-7/ADR; [5]): 46.5% | inhibition at 12.5 µM (MCF-7/ADR; [5]): 44.2% | inhibition at 50 µM (MCF-7/ADR; [5]): 52.7% | inhibition at 100 µM (MCF-7/ADR; [5]): 52.8% | IC50 (Hela229): 0.75 µM

CC(=O)N[C@@H](CS)C(=O)O [NAC, N-acetylcysteine, reference compound]
Cell viability (% of control group) (SH-SY5Y cells [2]): 81.05%

NC(=O)c1ncn([C@@H]2O[C@H](CO)[C@@H](O)[C@H]2O)n1 [Ribavirin, reference compound]
inhibition at 3.13 µM (influenza virus A/H3N2; Influenza A virus, A/H3N2 strain, 3.13 μM, read-out: CPE inhibition): 3.3% | inhibition at 6.25 µM (influenza virus A/H3N2; Influenza A virus, A/H3N2 strain, 6.25 μM, read-out: CPE inhibition): 0% | inhibition at 12.5 µM (influenza virus A/H3N2; Influenza A virus, A/H3N2 strain, 12.5 μM, read-out: CPE inhibition): 10% | inhibition at 25 µM (influenza virus A/H3N2; Influenza A virus, A/H3N2 strain, 25 μM, read-out: CPE inhibition): 50.5% | inhibition at 50 µM (influenza virus A/H3N2; Influenza A virus, A/H3N2 strain, 50 μM, read-out: CPE inhibition): 75% | inhibition at 100 µM (influenza virus A/H3N2; Influenza A virus, A/H3N2 strain, 100 μM, read-out: CPE inhibition): 100% | IC50 (influenza virus A/H3N2; Influenza A virus, A/H3N2 strain, Table S5, read-out: IC50): 28.3 µM | EC50 (influenza virus A/H3N2; influenza virus A (H3N2 strain), read-out: EC50): 28.3 µM | inhibition at 3.13 µM ([3]; B/Victoria strain, 3.13 μM, read-out: CPE inhibition): 0% | inhibition at 6.25 µM ([3]; B/Victoria strain, 6.25 μM, read-out: CPE inhibition): 0% | inhibition at 12.5 µM ([3]; B/Victoria strain, 12.5 μM, read-out: CPE inhibition): 25% | inhibition at 25 µM ([3]; B/Victoria strain, 25 μM, read-out: CPE inhibition): 62.5% | inhibition at 50 µM ([3]; B/Victoria strain, 50 μM, read-out: CPE inhibition): 75% | inhibition at 100 µM ([3]; B/Victoria strain, 100 μM, read-out: CPE inhibition): 100% | IC50 ([3]; B/Victoria strain, Table S5, read-out: IC50): 20.6 µM | EC50 ([3]; influenza virus B (Victoria strain), read-out: EC50): 20.6 µM

epigallocatechin-3-gallate [EGCG, reference compound]
Cell viability (% of control group) (SH-SY5Y cells [4]): 104.80%
